In ChEMBL document CHEMBL1153768, “New potential AChE inhibitor candidates” (Eur J Med Chem, 2009):

Tests used:
[1] = molecular target: Acetylcholinesterase (Electrophorus electricus) (UniProt O42275); test: Inhibition of Electrophorus electricus AChE at 100 uM
[2] = molecular target: Acetylcholinesterase (Electrophorus electricus) (UniProt O42275); test: (§1) Inhibition of Electrophorus electricus AChE
Acetylcholinesterase = Acetylcholinesterase (Electrophorus electricus, UniProt O42275); test: as §1
Acetylcholinesterase, sequence (O42275 whole entry): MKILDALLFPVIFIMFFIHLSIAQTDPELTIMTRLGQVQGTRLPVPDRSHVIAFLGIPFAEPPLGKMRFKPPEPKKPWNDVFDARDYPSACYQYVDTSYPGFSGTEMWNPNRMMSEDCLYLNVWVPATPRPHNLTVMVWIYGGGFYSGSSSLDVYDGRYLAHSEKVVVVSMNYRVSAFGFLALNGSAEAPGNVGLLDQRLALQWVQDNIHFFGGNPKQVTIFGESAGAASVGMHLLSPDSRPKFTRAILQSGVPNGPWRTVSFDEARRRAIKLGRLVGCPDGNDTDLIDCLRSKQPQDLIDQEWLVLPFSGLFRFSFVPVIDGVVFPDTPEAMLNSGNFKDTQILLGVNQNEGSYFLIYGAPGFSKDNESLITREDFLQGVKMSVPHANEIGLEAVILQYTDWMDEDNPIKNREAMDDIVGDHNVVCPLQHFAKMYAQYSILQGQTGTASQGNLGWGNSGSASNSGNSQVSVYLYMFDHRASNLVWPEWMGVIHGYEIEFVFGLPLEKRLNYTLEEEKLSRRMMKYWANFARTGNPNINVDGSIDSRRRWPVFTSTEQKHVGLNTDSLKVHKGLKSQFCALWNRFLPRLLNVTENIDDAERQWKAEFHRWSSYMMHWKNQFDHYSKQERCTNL

Acetylcholinesterase (Electrophorus electricus), sequence (O42275 24-633 limits assumed): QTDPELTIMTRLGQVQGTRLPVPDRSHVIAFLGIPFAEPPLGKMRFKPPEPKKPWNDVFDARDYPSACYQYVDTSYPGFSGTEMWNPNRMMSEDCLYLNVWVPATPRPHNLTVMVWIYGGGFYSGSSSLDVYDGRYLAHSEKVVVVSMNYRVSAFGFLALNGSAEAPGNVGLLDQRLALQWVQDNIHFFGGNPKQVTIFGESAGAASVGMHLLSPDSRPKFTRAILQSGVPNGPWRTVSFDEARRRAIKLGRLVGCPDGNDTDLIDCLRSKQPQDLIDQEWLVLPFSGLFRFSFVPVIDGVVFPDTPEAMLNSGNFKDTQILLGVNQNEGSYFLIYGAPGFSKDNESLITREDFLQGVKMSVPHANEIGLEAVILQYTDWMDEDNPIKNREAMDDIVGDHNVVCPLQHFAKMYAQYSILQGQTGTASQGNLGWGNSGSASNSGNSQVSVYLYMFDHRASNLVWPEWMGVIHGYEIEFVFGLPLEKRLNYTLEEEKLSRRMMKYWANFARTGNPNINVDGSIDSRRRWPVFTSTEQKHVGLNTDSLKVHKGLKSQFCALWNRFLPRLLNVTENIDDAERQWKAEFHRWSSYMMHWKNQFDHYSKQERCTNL

Row | SMILES | inhibition [1] [%] | inhibition [2] | IC50 (Acetylcholinesterase) [µM]
1 | CCCCCCCCCCCCCCC(c1cccc(OC(=O)N(C)C)c1)N(C)Cc1ccccc1 (stereo not drawn) | 25 | – | –
2 | CCCCCCCCCCCCCCC(c1cccc(OC(=O)N(C)C)c1)N(CC)CC (stereo not drawn) | – | Dose-dependent effect | 251
3 | CCCCCCCCCCCCCCC(c1cccc(OC(=O)N(C)C)c1)N1CCCC1 (stereo not drawn) | – | Dose-dependent effect | 84.3
4 | CCCCCCCCCCCCCCC(c1cccc(OC(=O)N(C)C)c1)N1CCCCC1 (stereo not drawn) | 25 | – | –
5 | CCCCCCCCCCCCCCC(c1cccc(OC(=O)N(C)C)c1)N(C)C (stereo not drawn) | – | Dose-dependent effect | 50
